Reference: PubChem BioAssay AID248 (DTP/NCI, 2004)
Inconclusive results and toxic doses are left out.

Test system: L1210 leukemia ip in BDF1 mice, survival T/C
Test: NCI In Vivo Anticancer Drug Screen. Data for tumor model L1210 Leukemia (intraperitoneal) in B6D2F1 (BDF1) mice
Details: endpoint: mean survival time, higher = longer survival
Summary of the method: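 Antitumor effect is assessed in tumor-bearing animals. Survival in the compound arm is compared with a vehicle-dosed control arm and expressed as their quotient.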

[1] = dose: 100.0 mg/kg/injection, schedule: Q01DX001 (ip), vehicle: Klucel (hydroxypropylcellulose) (HPC)
[2] = dose: 200.0 mg/kg/injection, schedule: Q01DX001 (ip), vehicle: Klucel (hydroxypropylcellulose) (HPC)
[3] = dose: 400.0 mg/kg/injection, schedule: Q01DX001 (ip), vehicle: Klucel (hydroxypropylcellulose) (HPC)
[4] = dose: 100.0 mg/kg/injection, schedule: Q01DX001 (ip), vehicle: saline
[5] = dose: 200.0 mg/kg/injection, schedule: Q01DX001 (ip), vehicle: saline
[6] = dose: 100.0 mg/kg/injection, schedule: Q01DX009 (ip), vehicle: saline with Tween-80
[7] = dose: 100.0 mg/kg/injection, schedule: Q04DX003 (ip), vehicle: saline with Tween-80
[8] = dose: 100.0 mg/kg/injection, schedule: Q01DX009 (ip), vehicle: Klucel (hydroxypropylcellulose) (HPC)
[9] = dose: 100.0 mg/kg/injection, schedule: Q04DX003 (ip), vehicle: Klucel (hydroxypropylcellulose) (HPC)
[10] = dose: 200.0 mg/kg/injection, schedule: Q01DX009 (ip), vehicle: Klucel (hydroxypropylcellulose) (HPC)
[11] = dose: 200.0 mg/kg/injection, schedule: Q04DX003 (ip), vehicle: Klucel (hydroxypropylcellulose) (HPC)
[12] = dose: 400.0 mg/kg/injection, schedule: Q04DX003 (ip), vehicle: Klucel (hydroxypropylcellulose) (HPC)
[13] = dose: 100.0 mg/kg/injection, schedule: Q01DX001 (ip), vehicle: other
[14] = dose: 200.0 mg/kg/injection, schedule: Q01DX001 (ip), vehicle: other
[15] = dose: 400.0 mg/kg/injection, schedule: Q01DX001 (ip), vehicle: other

`CC(C)CCC[C@@H](C)[C@H]1CC[C@H]2[C@@H]3CC=C4C[C@@H](OC(=O)Cc5ccc(N(CCCl)CCCl)cc5)CC[C@]4(C)[C@H]3CC[C@]12C` was tested, and the T/C (dose: 50.0 mg/kg/injection, schedule: Q01DX001 (sc), vehicle: steriod suspending solution) was 110 % of control, the T/C (dose: 50.0 mg/kg/injection, schedule: Q01DX009 (oral), vehicle: saline) was 98 % of control and the T/C (dose: 100.0 mg/kg/injection, schedule: Q01DX001 (sc), vehicle: steriod suspending solution) was 96 % of control. For the same compound, the T/C (dose: 100.0 mg/kg/injection, schedule: Q01DX009 (oral), vehicle: other) was 121 % of control, the T/C (dose: 100.0 mg/kg/injection, schedule: Q01DX009 (oral), vehicle: saline) was 98 % of control and the T/C (dose: 100.0 mg/kg/injection, schedule: Q01DX009 (sc), vehicle: other) was 109 % of control. The T/C (dose: 200.0 mg/kg/injection, schedule: Q01DX001 (sc), vehicle: steriod suspending solution) was 100 % of control, the T/C (dose: 200.0 mg/kg/injection, schedule: Q01DX009 (oral), vehicle: saline) was 102 % of control and the T/C (dose: 200.0 mg/kg/injection, schedule: Q01DX009 (sc), vehicle: other) was 111 % of control. For the same compound, the T/C (dose: 250.0 mg/kg/injection, schedule: Q01DX015 (ip), vehicle: steriod suspending solution) was 95 % of control, the T/C (dose: 400.0 mg/kg/injection, schedule: Q01DX001 (sc), vehicle: steriod suspending solution) was 115 % of control and the T/C (dose: 400.0 mg/kg/injection, schedule: Q01DX009 (oral), vehicle: other) was 116 % of control. For the same compound, the T/C (dose: 400.0 mg/kg/injection, schedule: Q01DX009 (oral), vehicle: saline) was 91 % of control, the T/C (dose: 400.0 mg/kg/injection, schedule: Q01DX009 (sc), vehicle: other) was 106 % of control and the T/C (dose: 400.0 mg/kg/injection, schedule: Q01DX015 (ip), vehicle: steriod suspending solution) was 111 % of control. The T/C (dose: 800.0 mg/kg/injection, schedule: Q01DX009 (oral), vehicle: other) was 98 % of control and the T/C (dose: 800.0 mg/kg/injection, schedule: Q01DX009 (oral), vehicle: saline) was 96 % of control.
`CC(=O)Oc1c2ccccc2c2c3c(cccc13)C(=O)O2` was tested, and the T/C [1] was 95 % of control, the T/C [2] was 95 % of control and the T/C [3] was 95 % of control.
In the case of `CCN(CC)/N=C/CC(C)Nc1ccnc2cc(Cl)ccc12` (stereo unspecified), the T/C (dose: 3.12 mg/kg/injection, schedule: Q01DX009 (ip), vehicle: acetone) was 92 % of control, the T/C (dose: 6.25 mg/kg/injection, schedule: Q01DX009 (ip), vehicle: acetone) was 97 % of control and the T/C (dose: 12.5 mg/kg/injection, schedule: Q04DX003 (ip), vehicle: saline) was 93 % of control.
For `CN(N)C(=S)c1ccc(Cl)cc1`, the T/C (dose: 50.0 mg/kg/injection, schedule: Q04DX003 (ip), vehicle: saline) was 102 % of control, the T/C [4] was 95 % of control and the T/C (dose: 100.0 mg/kg/injection, schedule: Q04DX003 (ip), vehicle: saline) was 100 % of control. The T/C [5] was 93 % of control and the T/C (dose: 200.0 mg/kg/injection, schedule: Q04DX003 (ip), vehicle: saline) was 96 % of control.
In the case of `C=C(C)CN=C=S`, the T/C (dose: 25.0 mg/kg/injection, schedule: Q01DX009 (ip), vehicle: saline with Tween-80) was 100 % of control, the T/C (dose: 25.0 mg/kg/injection, schedule: Q04DX003 (ip), vehicle: saline with Tween-80) was 101 % of control and the T/C (dose: 50.0 mg/kg/injection, schedule: Q01DX009 (ip), vehicle: saline with Tween-80) was 98 % of control. The T/C (dose: 50.0 mg/kg/injection, schedule: Q04DX003 (ip), vehicle: saline with Tween-80) was 109 % of control, the T/C [6] was 104 % of control and the T/C [7] was 103 % of control.
For `Cc1ncc(C(C)(O)c2ccc(Cl)cc2)n1Cc1ccccc1` (stereo unspecified), the T/C [1] was 112 % of control, the T/C [8] was 92 % of control and the T/C [9] was 92 % of control. The T/C [2] was 98 % of control, the T/C [10] was 89 % of control and the T/C [11] was 88 % of control. For the same compound, the T/C [3] was 118 % of control, the T/C (dose: 400.0 mg/kg/injection, schedule: Q01DX009 (ip), vehicle: Klucel (hydroxypropylcellulose) (HPC)) was 92 % of control and the T/C [12] was 92 % of control.
With `CC(=O)N/N=C(/C)C(O)(c1ccccc1)c1ccccc1` the T/C [6] was 95 % of control, the T/C [7] was 100 % of control and the T/C (dose: 200.0 mg/kg/injection, schedule: Q01DX009 (ip), vehicle: saline with Tween-80) was 92 % of control. The T/C (dose: 200.0 mg/kg/injection, schedule: Q04DX003 (ip), vehicle: saline with Tween-80) was 101 % of control, the T/C (dose: 400.0 mg/kg/injection, schedule: Q01DX009 (ip), vehicle: saline with Tween-80) was 97 % of control and the T/C (dose: 400.0 mg/kg/injection, schedule: Q04DX003 (ip), vehicle: saline with Tween-80) was 101 % of control.
For `CCCCCCCCCCCCC(=O)N1CCCC1`, the T/C (dose: 100.0 mg/kg/injection, schedule: Q04DX002 (ip), vehicle: saline) was 104 % of control, the T/C (dose: 200.0 mg/kg/injection, schedule: Q04DX002 (ip), vehicle: saline) was 104 % of control and the T/C (dose: 400.0 mg/kg/injection, schedule: Q04DX002 (ip), vehicle: saline) was 96 % of control.
With `CC(=O)c1ccc(S(=O)(=O)Cl)cc1` the T/C (dose: 50.0 mg/kg/injection, schedule: Q01DX001 (ip), vehicle: saline) was 113 % of control, the T/C [4] was 90 % of control and the T/C [5] was 104 % of control.
`CCOc1ccc2c(c1)C(C)=CC(C)(C)N2` was tested, and the T/C [9] was 93 % of control, the T/C [11] was 101 % of control and the T/C [12] was 121 % of control.
In the case of `Cc1ccc(/C=N/N=C(N)N)cc1`, the T/C (dose: 15.0 mg/kg/injection, schedule: Q01DX Z (ip), vehicle: saline) was 104 % of control, the T/C (dose: 30.0 mg/kg/injection, schedule: Q01DX Z (ip), vehicle: saline) was 98 % of control and the T/C (dose: 30.0 mg/kg/injection, schedule: Q01DX Z (oral), vehicle: saline) was 99 % of control. For the same compound, the T/C (dose: 60.0 mg/kg/injection, schedule: Q01DX Z (ip), vehicle: saline) was 96 % of control, the T/C (dose: 60.0 mg/kg/injection, schedule: Q01DX Z (oral), vehicle: saline) was 94 % of control and the T/C (dose: 120.0 mg/kg/injection, schedule: Q01DX Z (oral), vehicle: saline) was 97 % of control. The T/C (dose: 240.0 mg/kg/injection, schedule: Q01DX Z (oral), vehicle: saline) was 100 % of control.
`O=C(CCc1ccc(C(=O)Nc2ccc(C3=NCCCN3)cc2)cc1)Nc1ccc(C2=NCCCN2)cc1` was tested, and the T/C (dose: 0.37 mg/kg/injection, schedule: Q01DX Z (ip), vehicle: water) was 98 % of control, the T/C (dose: 0.75 mg/kg/injection, schedule: Q01DX Z (ip), vehicle: water) was 108 % of control and the T/C (dose: 1.0 mg/kg/injection, schedule: Q01DX Z (ip), vehicle: water) was 121 % of control. For the same compound, the T/C (dose: 4.0 mg/kg/injection, schedule: Q01DX Z (ip), vehicle: water) was 232 % of control, the T/C (dose: 8.0 mg/kg/injection, schedule: Q01DX Z (ip), vehicle: water) was 270 % of control and the T/C (dose: 25.0 mg/kg/injection, schedule: Q01DX Z (oral), vehicle: water) was 102 % of control. For the same compound, the T/C (dose: 50.0 mg/kg/injection, schedule: Q01DX Z (oral), vehicle: water) was 93 % of control, the T/C (dose: 100.0 mg/kg/injection, schedule: Q01DX Z (oral), vehicle: water) was 93 % of control and the T/C (dose: 200.0 mg/kg/injection, schedule: Q01DX Z (oral), vehicle: water) was 102 % of control.
With `CC(=O)Nc1cc(NC(C)=O)c2nc(CN(C)c3ccc(C(=O)O)cc3)cnc2n1` the T/C [13] was 101 % of control, the T/C [14] was 98 % of control and the T/C [15] was 97 % of control.
In the case of `O=C(N/N=C/C=C/c1ccccc1)c1ccco1`, the T/C [13] was 87 % of control, the T/C [14] was 87 % of control and the T/C [15] was 93 % of control.
In the case of `O=S(=O)(O)c1ccc2cc(O)c(O)cc2c1`, the T/C (dose: 100.0 mg/kg/injection, schedule: Q04DX002 (ip), vehicle: Klucel (hydroxypropylcellulose) (HPC)) was 91 % of control, the T/C (dose: 200.0 mg/kg/injection, schedule: Q04DX002 (ip), vehicle: Klucel (hydroxypropylcellulose) (HPC)) was 95 % of control and the T/C (dose: 400.0 mg/kg/injection, schedule: Q04DX002 (ip), vehicle: Klucel (hydroxypropylcellulose) (HPC)) was 95 % of control.
`O=C(/C=C(/C(=C/C(=O)c1ccccc1)c1ccccc1)c1ccccc1)c1ccccc1` was tested, and the T/C (dose: 50.0 mg/kg/injection, schedule: Q01DX009 (ip), vehicle: Klucel (hydroxypropylcellulose) (HPC)) was 102 % of control, the T/C [8] was 94 % of control and the T/C [10] was 87 % of control.
